Source: paper PMC10259803 (PLOS Pathogens, 2023)

How the values were obtained:
D39x comC^- = experiment: in vitro recombination frequency, D39x comC^-; assay type: cell-based, Streptococcus pneumoniae; settings: for HAT concentration to reduce the recombination frequency to below 5% of 0 trypsin: CSP incubated with HAT 30 min; for HAT concentration to reduce the recombination frequency to below 5% of 0 trypsin / PPT concentration to reduce the recombination frequency to below 5% of 0 trypsin: room temperature; for PPT concentration to reduce the recombination frequency to below 5% of 0 trypsin: CSP incubated with PPT 30 min; for reduction of recombination frequency upon incubation of modified CSP with trypsin-like proteases: both PPT and HAT, compared with unmodified CSP1
Experimental: (§1) During culture incubation, porcine pancreatic trypsin (PPT; Sigma #T4799) was reconstituted in Hank’s balanced salt solution (Gibco) and incubated with either water or 4-(2-Aminoethyl) benzenesulfonyl fluoride hydrochloride (AEBSF; Cayman #14321) in a total volume of 50μL 30mM Tris, pH 8.5 and incubated for 15 minutes, room temperature. CSP1 or CSP2 was added, followed by incubation for 30 minutes, room temperature. When the culture reached OD620~0.08, 1 mL of culture was transferred to the PPT-AEBSF-CSP mixture and 2 μg of D39 Tn-seq library gDNA (D39 strains) or 2 μg of TIGR4 Tn-seq library gDNA (TIGR4 strains) was added. […] Upon addition of the culture, the final concentration of PPT ranged from 0–10 μg/mL, AEBSF was 0.1 mM, CSP was 3 μg/mL, and gDNA was 2 μg/mL. The transformation was incubated for 3 hours at 37°C, 5% CO2, followed by serial dilution and plating on two TSA blood plates and two TSA blood plates supplemented with 200 μg/mL spectinomycin. To observe low-frequency recombination events, 200 μL of the transformation was also spread plated on two TSA blood plates supplemented with 200 μg/mL spectinomycin. For transformations with HAT incubated CSP, HAT (Bio-techne R&D #2695-SE-010) was reconstituted in 25mM Tris, 150mM NaCl, pH 7.5. All incubation times and final concentrations were the same as for PPT; however, the volumes were 1/10th as that for PPT. For both PPT and HAT, the experiment was repeated at least three times.

D39x = experiment: ex vivo recombination frequency with mouse lung homogenate, D39x; assay type: cell-based, Streptococcus pneumoniae; settings: for ex vivo recombination frequency with homogenized lungs of mice treated in vivo: poly (I:C) 50 μL of 1 mg/mL IN daily 4 days, AEBSF 125 μg IN daily 3 days along with poly (I:C), 0 mM AEBSF ex vivo
Experimental: To determine the impact of proteases from the lungs of mice on recombination frequency, a similar experimental setup as the in vitro recombination frequency was performed. […] During culture incubation, the lungs of 10-week-old female Balb/cJ mice (N = 7) were harvested and homogenized in 600 μL PBS. Lung homogenate was incubated with either water or AEBSF for 30 minutes, room temperature. 60 μL of lung homogenate-AEBSF mixture was transferred to a new tube. Addition of CSP1, culture, and gDNA and transformation was performed in the same manner as the in vitro recombination frequency. The final concentration of CSP was 3 μg/mL and gDNA was 2 μg/mL. The final concentration of AEBSF was 0mM, 1 mM, or 2mM. The lung from each mouse was divided into six transformations: D39x with lungs incubated with 0mM, 1 mM, or 2mM AEBSF and D39x comC^- with lungs incubated with 0mM, 1 mM, or 2mM AEBSF. As a control, the same culture of D39x and D39x comC^- were transformed with gDNA and CSP1 incubated with AEBSF in PBS. Recombination frequency of the transformation with CSP1 incubated with 1 mM and with 2 mM AEBSF were compared to that incubated with 0 mM AEBSF using Kruskal-Wallis one-way ANOVA in Graphpad 6.
Lungs were harvested and homogenized in 600 μL PBS. The homogenates from all lungs were subjected to the ex vivo protocol described above and the recombination frequency of D39x and D39x comC^- subjected to lungs incubated with 0mM, 1 mM, or 2mM AEBSF and CSP1 was determined.

porcine trypsin = biological target: T1, porcine trypsin (Sus scrofa, UniProt P00761); experiment: Mass spectrometry of CSP cleavage by porcine trypsin; assay type: in vitro ADME; settings: 30 min, room temperature
T1 construct: purchased Promega V5280
Experimental: Fig 1 Serine proteases cleave competence-stimulating peptide of S. pneumoniae. (A) Sequence of competence-stimulating peptide 1 (CSP1) and peptide 2 (CSP2). Red arrows indicate potential cleavage sites by trypsin-like serine proteases. (B) Mass spectrometry analysis of cleaved residues of CSP1 upon incubation with no trypsin (grey) or with porcine trypsin (black) for 30 minutes. (C) Mass spectrometry analysis of cleaved residues of CSP1 upon incubation with no trypsin (grey) or with human airway trypsin (HAT) (black) for 30 minutes. (D) Mass spectrometry analysis of cleaved residues of CSP2 upon incubation with no trypsin (grey) or with porcine trypsin (black) for 30 minutes. (E) Mass spectrometry analysis of cleaved residues of CSP2 upon incubation with no trypsin (grey) or with HAT (black) for 30 minutes. (B-E) The fraction of each peptide detected by mass spectrometry was calculated by dividing the area of the cleaved peptide by the total area of all peptides. In the case of two cleavage sites on the same peptide, the fraction was equally attributed to both cleavage sites. […]
CSPs was incubated with either porcine trypsin gold (Promega #V5280) or human airway trypsin-like protease (HAT; Bio-techne R&D #2695-SE-010) for thirty minutes, room temperature. […] The eluted peptides were ionized by electrospray ionization and detected by an inline mass spectrometer (Thermo Orbitrap Fusion). […]

DLA3 [1] = experiment: Growth (OD620) of DLA3; settings: DLA3 with CSP1 incubated with trypsin with and without AEBSF (S1 Fig)
Experimental: A similar protocol as the in vitro recombination frequency was followed. DLA3 was inoculated in C+Y at OD620~0.03. Either PPT or HAT was incubated with water or AEBSF for 15 minutes, room temperature, followed by incubation with CSP1 for thirty minutes in a total volume of 5 μL 30mM Tris, pH 8.5. When the culture reached OD620~0.08, cells were pelleted at 6,000xg, 5 min and resuspended in fresh C+Y. 100 μL of the culture was added to the Trypsin-AEBSF-CSP mixture, followed by transfer to a white-walled, clear-bottom 96-well plate and addition of 5 μL of 10 mg/mL luciferin (Sigma #L6882). Luminescence and OD620 measurements were taken every 30 minutes in a Biotek Cytation 3. Increasing concentrations of protease within each group (0 mM AEBSF or 0.1 mM AEBSF) were compared using two-way ANOVA in Graphpad 6.
Absorbance at OD620 of DLA3 grown in the presence of CSP1 incubated with increasing concentrations of trypsin with and without inhibitor AEBSF. Incubation of CSP1 with PPT (A) without AEBSF or (B) with AEBSF. Incubation of CSP1 with HAT (C) without AEBSF or (D) with AEBSF. Experiment was repeated in triplicate. The mean value of OD620 of each 30-minute timepoint is reported; error bars are SEM.

DLA3 [2] = experiment: Luminescence assay, DLA3 (PssbB-luc competence reporter); settings: CSP1; 0.1 mM AEBSF
Experimental: DLA3 was inoculated in C+Y at OD620~0.03. Either PPT or HAT was incubated with water or AEBSF for 15 minutes, room temperature, followed by incubation with CSP1 for thirty minutes in a total volume of 5 μL 30mM Tris, pH 8.5. When the culture reached OD620~0.08, cells were pelleted at 6,000xg, 5 min and resuspended in fresh C+Y. 100 μL of the culture was added to the Trypsin-AEBSF-CSP mixture, followed by transfer to a white-walled, clear-bottom 96-well plate and addition of 5 μL of 10 mg/mL luciferin (Sigma #L6882). Luminescence and OD620 measurements were taken every 30 minutes in a Biotek Cytation 3.

S. pneumoniae D39 = experiment: in vivo recombination frequency, poly (I:C) / AEBSF treated mice; settings: Balb/cJ mice; poly (I:C) 50 μL of 1 mg/mL IN daily 4 days vs vehicle; AEBSF 125 μg IN prior to poly (I:C) vs poly (I:C) without inhibitor; 20 h after challenge
TIGR4 = experiment: in vitro recombination frequency, TIGR4; assay type: cell-based, Streptococcus pneumoniae; settings: CSP2; PPT or HAT; 0.1 mM AEBSF
Experimental: as §1, with “For both PPT and HAT, the experiment was repeated at least three times.” left out

[3] = system: serine proteases in mouse lung homogenates and sera; experiment: Protease levels (fluorescence of substrate BOC); assay type: biochemical; settings: for Protease levels in lungs and sera of treated mice: poly (I:C) vs control mice (lungs and sera), AEBSF prior to poly (I:C) vs poly (I:C) alone (lungs)
Experimental: For ex vivo experiments, the protease levels were measured from the same lung homogenate used in the ex vivo recombination frequency experiment, adapting the protocol from the HAT manufacturer (Bio-techne R&D). After the lungs were incubated with either water or AEBSF, 50 μL of lung homogenate mixture was transferred to a black, 96-well plate. 50 μL of substrate t-Butyloxycarbonyl Phe-Ser-Arg 7-amino-4methyl coumarin (Bachem # I1400) was added directly to the well, incubated for 10 minutes at room temperature, and fluorescence (380 excitation; 460 emission) was detected in a Biotek Cytation 3. Protease levels of lung homogenates incubated with 1 mM and 2 mM AEBSF were compared to that incubated with 0 mM AEBSF using one-way ANOVA and correlation between protease levels and recombination frequency was compared using two-tailed spearman in Graphpad 6.
For in vivo experiments, homogenized lungs were further clarified after plating on TSA plates via centrifugation at 10,000xg, 5min. Sera was separated from whole blood via centrifugation at 10,000xg, 5 min in sera-collection tubes. The clarified homogenates and sera were transferred to a black, 96-well plate and 50 μL of substrate t-Butyloxycarbonyl Phe-Ser-Arg 7-amino-4methyl coumarin was added directly to the well and fluorescence (380 excitation; 460 emission) was detected in a Biotek Cytation 3. Protease levels of all groups were compared pairwise for each tissue using unpaired t test and correlation between protease levels and recombination frequency was compared using two-tailed spearman in Graphpad 6.

porcine trypsin gold = porcine trypsin gold (Promega #V5280); settings: room temperature, up to thirty minutes

T1 sequence (P00761 9-231): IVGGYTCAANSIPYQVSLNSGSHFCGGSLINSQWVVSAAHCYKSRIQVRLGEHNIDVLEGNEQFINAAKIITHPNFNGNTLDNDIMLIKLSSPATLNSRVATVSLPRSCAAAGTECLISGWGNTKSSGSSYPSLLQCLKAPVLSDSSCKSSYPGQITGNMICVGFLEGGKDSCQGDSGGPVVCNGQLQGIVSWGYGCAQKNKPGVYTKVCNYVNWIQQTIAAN

CC[C@H](C)[C@H](NC(=O)[C@H](Cc1ccccc1)NC(=O)[C@H](CC(=O)O)NC(=O)[C@H](CCCNC(=N)N)NC(=O)[C@H](Cc1ccccc1)NC(=O)[C@H](Cc1ccccc1)NC(=O)[C@H](CCCCN)NC(=O)[C@H](CO)NC(=O)[C@H](CC(C)C)NC(=O)[C@H](CCCNC(=N)N)NC(=O)[C@H](CCSC)NC(=O)[C@@H](N)CCC(=O)O)C(=O)N[C@@H](CC(C)C)C(=O)N[C@@H](CCC(N)=O)C(=O)N[C@@H](CCCNC(=N)N)C(=O)N[C@@H](CCCCN)C(=O)N[C@@H](CCCCN)C(=O)O [CSP1]
HAT concentration to reduce the recombination frequency to below 5% of 0 trypsin (D39x comC^-): 1 µg/mL | PPT concentration to reduce the recombination frequency to below 5% of 0 trypsin (D39x comC^-): 0.05 µg/mL | recombination frequency after incubation of CSP with mouse lung homogenate (D39x; mouse lung homogenate, ex vivo): reduced | preferential cleavage site, porcine trypsin (porcine trypsin): R15 followed by K6 and R9

CC[C@H](C)[C@H](NC(=O)[C@H](Cc1ccccc1)NC(=O)[C@H](CC(=O)O)NC(=O)[C@H](Cc1c[nH]cn1)NC(=O)[C@H](Cc1ccccc1)NC(=O)[C@H](Cc1ccccc1)NC(=O)[C@H](CCCCN)NC(=O)[C@H](CO)NC(=O)[C@H](CC(C)C)NC(=O)[C@H](CCCNC(=N)N)NC(=O)[C@H](CCSC)NC(=O)[C@@H](N)CCC(=O)O)C(=O)N[C@@H](CC(C)C)C(=O)N[C@@H](CCC(N)=O)C(=O)N[C@@H](CCCNC(=N)N)C(=O)N[C@@H](CCCCN)C(=O)N[C@@H](CCCCN)C(=O)O [R9H]
HAT concentration to reduce recombination frequency below 5% of 0 trypsin: times less compared to unmodified CSP1 (D39x comC^-; CSP incubated with HAT): 2 times | HAT concentration to reduce the recombination frequency to below 5% of 0 trypsin (D39x comC^-): 0.5 µg/mL | PPT concentration to reduce recombination frequency below 5% of 0 trypsin: times less compared to unmodified CSP1 (D39x comC^-; CSP incubated with PPT): 5 times | PPT concentration to reduce the recombination frequency to below 5% of 0 trypsin (D39x comC^-): 0.01 µg/mL | reduction of recombination frequency upon incubation of modified CSP with trypsin-like proteases (D39x comC^-): to a greater extent than the unmodified CSP1

Cl.NCCc1ccc(S(=O)(=O)F)cc1 [AEBSF, 4-(2-Aminoethyl) benzenesulfonyl fluoride hydrochloride]
Growth of S. pneumoniae (OD620) (DLA3 [1]): not reduced | PPT-caused reduction of DLA3 luminescence when PPT was pre-incubated with AEBSF (DLA3 [2]): abrogated | in vivo recombination frequency of D39 in lungs and blood (S. pneumoniae D39): higher frequency | recombination frequency with CSP1 incubated with PPT or HAT pre-incubated with AEBSF (D39x comC^-; 0.1 mM AEBSF, protease pre-incubated 15 min): at a similar level as that of the no trypsin control | protease-caused reduction of recombination frequency when proteases were incubated with AEBSF (TIGR4): abrogated | recombination frequency with CSP1 incubated with AEBSF alone (D39x; CSP1 in PBS with increasing AEBSF, no lung homogenate, D39x and D39x comC^- (S3 Fig)): did not increase | recombination frequency with CSP1 incubated with lung homogenates treated with AEBSF (D39x; mouse lung homogenate incubated 30 min with 1 or 2 mM AEBSF vs 0 mM): increased | ex vivo recombination frequency with homogenized lungs of mice treated in vivo (D39x): restored | levels of serine proteases in the lung homogenates ([3]; lung homogenate incubated with 1 or 2 mM AEBSF, BOC substrate fluorescence): decreased | Protease levels in lungs and sera of treated mice ([3]; BOC substrate fluorescence): reduced

CC[C@H](C)[C@H](NC(=O)[C@H](Cc1ccccc1)NC(=O)[C@H](CC(=O)O)NC(=O)[C@H](CCCNC(=N)N)NC(=O)[C@H](Cc1ccccc1)NC(=O)[C@H](Cc1ccccc1)NC(=O)[C@H](CCCCN)NC(=O)[C@H](CO)NC(=O)[C@H](CC(C)C)NC(=O)[C@H](CCCNC(=N)N)NC(=O)[C@H](CCSC)NC(=O)[C@@H](N)CCC(=O)O)C(=O)N[C@@H](CC(C)C)C(=O)N[C@@H](CCC(N)=O)C(=O)N[C@@H](Cc1c[nH]cn1)C(=O)N[C@@H](CCCCN)C(=O)N[C@@H](CCCCN)C(=O)O [R15H]
reduction of recombination frequency upon incubation of modified CSP with trypsin-like proteases (D39x comC^-): similarly to that of unmodified CSP1

EMRISRIILDFLFLRKK
cleaved bond (porcine trypsin gold): R6-I7 and E-M and D-F

poly (I:C)
in vivo recombination frequency of D39 in lungs and blood (S. pneumoniae D39): significant reduction | ex vivo recombination frequency with homogenized lungs of mice treated in vivo (D39x): reduced | Protease levels in lungs and sera of treated mice ([3]; BOC substrate fluorescence): higher | protease levels in inflamed lungs, equated to recombinant HAT ([3]; recombinant HAT standard, 35000 RFU = 0.05 μg/mL, non-inflamed lungs 0.079 (±0.010)): 0.168 (±0.012) μg/mL

CC[C@H](C)[C@H](NC(=O)[C@H](Cc1ccccc1)NC(=O)[C@H](CC(=O)O)NC(=O)[C@H](CCCNC(=N)N)NC(=O)[C@H](Cc1ccccc1)NC(=O)[C@H](Cc1ccccc1)NC(=O)[C@H](Cc1c[nH]cn1)NC(=O)[C@H](CO)NC(=O)[C@H](CC(C)C)NC(=O)[C@H](CCCNC(=N)N)NC(=O)[C@H](CCSC)NC(=O)[C@@H](N)CCC(=O)O)C(=O)N[C@@H](CC(C)C)C(=O)N[C@@H](CCC(N)=O)C(=O)N[C@@H](CCCNC(=N)N)C(=O)N[C@@H](CCCCN)C(=O)N[C@@H](CCCCN)C(=O)O [K6H]
reduction of recombination frequency upon incubation of modified CSP with trypsin-like proteases (D39x comC^-): similarly to that of unmodified CSP1
